Here are results for seven compounds from patent US20230159556A1, “NOVEL PROTEIN KINASE INHIBITORS” (TENOVA PHARMACEUTICALS INC., priority 2020, published 2023).

The subject of data set [1] is BaF3-EGFR-Del19/T790M/C797S cells. In words: In vivo Cell Transplant Xenograft (CTX) model. Conditions: for tumor growth inhibition rate TGITV (%): end of the experiment. Also noted: species or system BALB/c nude mice. Here is the method: The pharmacological experiments in vivo were performed on BALB/c nude mice that subcutaneously implanted BaF3-EGFR-Del19/T790M/C797S cells. BALB/c nude mice, female, 6-8 weeks, weighted about 16-19 grams, the mice were kept in a special pathogen-free environment, and in a single ventilation cage (3 mice per cage). The bedding and water of all the cages were disinfected before use. All animals were free to obtain standard certified commercial laboratory diets. The BaF3-EGFR-Del19/T790M/C797S cell (5×10^6 cells/mice) was implanted subcutaneously for tumor growth. After 10 days, the experiment was started the average tumor volume reached about 130 mm^3. The mice were divided into 4 groups with 6 mice in each group. Compound A29 was orally administered once daily continuously for 15 days at 5 mg/kg, 15 mg/kg and 45 mg/kg. The tumor volume was measured twice a week with a two-dimensional caliper and the volume was measured in cubic millimeters and calculated by the following formula: V=0.5 a×b2, where a and b were the major and minor diameters of the tumor, respectively. The tumor volume at day n is expressed as Relative Tumor Volume (RTV) and calculated according to the following formula: RTV=TVn/TV0, where TVn is the tumor volume at day n and TV0 is the tumor volume at day 0. The T/C (the ratio of tumor volume in […] mice) is determined by TIC (%)=(mean RTV of treated group)/(mean RTV of control group)×100%. The tumor growth inhibition rate TGITV (%) is calculated using the formula TGITV (%)=(1−T/C)×100%.

The target in data set [2] is T1, EGFR_L858R/T790M/C797S (Homo sapiens, UniProt P00533, C797S/L858R/T790M).
T1 construct: Reaction Biology Corporation (contract assay provider)
As to the kind of experiment: In vitro biochemical kinase assay (33P-ATP filter-binding, Reaction Biology). As to the method: (§1) The biochemical kinase assay was performed at Reaction Biology Corporation (www.reactionbiology.com, Malvern, Pa.) following procedures described in the reference (Anastassiadis, T, et al, Nature Biotechnology, 2011, 29, 1039). Base Reaction buffer includes 20 mM Hepes (pH 7.5), 10 mM MgCl2, 1 mM EGTA, 0.02% Brij35, 0.02 mg/ml BSA, 0.1 mM Na3VO4, 2 mM DTT and 1% DMSO. Required cofactors are added individually to each kinase reaction. Testing compounds were dissolved in 100% DMSO to specific concentration. The serial dilution was conducted by Integra Viaflo Assist in DMSO. Compounds in 100% DMSO are into the kinase reaction mixture by Acoustic technology (Echo550; nanoliter range), incubate for 20 min at room temperature, followed by ^33P-ATP and incubation for 2 hours at room temperature. Radioactivity was then detected by filter-binding method. Kinase activity data were expressed as the percent remaining kinase activity in test samples compared to vehicle (dimethyl sulfoxide) reactions. IC50 values and curve fits were obtained using Prism (GraphPad Software).

Data set [3] addresses T2, EGFR_WT (Homo sapiens, UniProt P00533).
T2 construct: Reaction Biology Corporation (contract assay provider)
The data set is described as above. As to the method: as §1

For data set [4], the target named is Ba/F3_EGFR_del19/T790M/C797S cell (Homo sapiens, UniProt P00533, T790M/C797S, cells depend on it, form not given). As to the kind of experiment: BaF3 cell proliferation assay (CelltiterGlo, 72 hr). Type of data set: cell-based. The settings on record: 72 hr incubation; read-out: IC50 (nM, Ba/F3_EGFR_del19/T790M/C797S cell proliferation). As to the method:
(§2) The BaF3 cell proliferation assay was performed at Pharmaron (www.pharmaron.com, Beijing, China). The Ba/F3_WT and Ba/F3_Del19/T790M/C797S cell lines were maintained in 1640 medium containing 10% FBS, 1*PS and 1*Glutamax. Only cells with viability greater than 90% are used for assays. Dispense 30 μl of cell suspension at 700/well into 384 well microplate, add 30 nl compound solution into 384 cell plate by Echo, cells were incubated for 72 hr in 37° C./5% CO2 incubator, add 30 μl reagent CelltiterGlo assay kit (CTG, Promega) per well and shake plates, incubate the plate (avoiding light) at 37° C./5% CO2 for 30 min. and read the luminescence by Envision. The luminescence values were converted to % Inhibition. Calculate IC50 by fitting % inhibition values and log of compound concentrations to nonlinear regression (dose response−variable slope) with Graphpad 5.0.
(§3) Y=Bottom+(Top−Bottom)/(1+10^((Log IC50−X)*HillSlope))
(§4) X: log of inhibitor concentration; Y: % Inhibition.
In general terms: In ATP-based viability assays light output follows the ATP content of the culture.

Data set [5] deals with Ba/F3_WT cell. The description is as above. Type of data set: cell-based. The settings on record: Mus musculus, 72 hr incubation. Here is the method:
as §2, §3, §4

For data set [6] the following is noted: ether bond, 25.0 °C, 16.0 h.
The conditions of data set [7]: ether bond.

Where two headings read alike, the source gives them in different places.

T1 sequence (P00533 25-1210 T790M/C797S/L858R): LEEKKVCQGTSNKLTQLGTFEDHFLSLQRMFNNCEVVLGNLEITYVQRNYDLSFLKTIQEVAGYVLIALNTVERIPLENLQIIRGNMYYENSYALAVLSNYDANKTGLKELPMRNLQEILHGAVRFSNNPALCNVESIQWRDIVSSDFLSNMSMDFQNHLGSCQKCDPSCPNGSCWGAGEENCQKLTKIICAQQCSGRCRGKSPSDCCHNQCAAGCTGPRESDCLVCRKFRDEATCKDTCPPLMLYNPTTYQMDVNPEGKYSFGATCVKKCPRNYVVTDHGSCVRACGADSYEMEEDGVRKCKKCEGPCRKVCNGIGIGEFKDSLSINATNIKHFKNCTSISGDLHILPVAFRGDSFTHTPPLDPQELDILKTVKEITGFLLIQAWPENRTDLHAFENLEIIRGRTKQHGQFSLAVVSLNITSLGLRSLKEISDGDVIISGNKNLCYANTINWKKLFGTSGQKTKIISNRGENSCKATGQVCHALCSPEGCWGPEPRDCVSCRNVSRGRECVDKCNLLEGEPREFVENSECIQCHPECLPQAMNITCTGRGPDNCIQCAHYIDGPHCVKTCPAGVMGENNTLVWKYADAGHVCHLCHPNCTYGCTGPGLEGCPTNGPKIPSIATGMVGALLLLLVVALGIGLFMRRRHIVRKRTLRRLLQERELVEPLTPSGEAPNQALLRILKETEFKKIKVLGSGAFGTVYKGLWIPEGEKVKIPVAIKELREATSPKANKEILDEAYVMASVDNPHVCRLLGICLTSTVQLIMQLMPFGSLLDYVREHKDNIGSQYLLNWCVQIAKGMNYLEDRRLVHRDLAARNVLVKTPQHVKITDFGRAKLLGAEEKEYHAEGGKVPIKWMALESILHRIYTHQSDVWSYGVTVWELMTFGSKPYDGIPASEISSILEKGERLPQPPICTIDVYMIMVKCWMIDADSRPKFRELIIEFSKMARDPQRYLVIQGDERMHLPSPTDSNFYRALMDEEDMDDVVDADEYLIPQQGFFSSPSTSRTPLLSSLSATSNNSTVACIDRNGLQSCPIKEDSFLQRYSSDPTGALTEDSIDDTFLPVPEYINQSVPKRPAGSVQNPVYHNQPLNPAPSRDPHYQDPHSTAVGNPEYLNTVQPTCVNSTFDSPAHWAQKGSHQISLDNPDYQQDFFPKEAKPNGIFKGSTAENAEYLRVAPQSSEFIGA
T2 sequence (P00533 25-1210): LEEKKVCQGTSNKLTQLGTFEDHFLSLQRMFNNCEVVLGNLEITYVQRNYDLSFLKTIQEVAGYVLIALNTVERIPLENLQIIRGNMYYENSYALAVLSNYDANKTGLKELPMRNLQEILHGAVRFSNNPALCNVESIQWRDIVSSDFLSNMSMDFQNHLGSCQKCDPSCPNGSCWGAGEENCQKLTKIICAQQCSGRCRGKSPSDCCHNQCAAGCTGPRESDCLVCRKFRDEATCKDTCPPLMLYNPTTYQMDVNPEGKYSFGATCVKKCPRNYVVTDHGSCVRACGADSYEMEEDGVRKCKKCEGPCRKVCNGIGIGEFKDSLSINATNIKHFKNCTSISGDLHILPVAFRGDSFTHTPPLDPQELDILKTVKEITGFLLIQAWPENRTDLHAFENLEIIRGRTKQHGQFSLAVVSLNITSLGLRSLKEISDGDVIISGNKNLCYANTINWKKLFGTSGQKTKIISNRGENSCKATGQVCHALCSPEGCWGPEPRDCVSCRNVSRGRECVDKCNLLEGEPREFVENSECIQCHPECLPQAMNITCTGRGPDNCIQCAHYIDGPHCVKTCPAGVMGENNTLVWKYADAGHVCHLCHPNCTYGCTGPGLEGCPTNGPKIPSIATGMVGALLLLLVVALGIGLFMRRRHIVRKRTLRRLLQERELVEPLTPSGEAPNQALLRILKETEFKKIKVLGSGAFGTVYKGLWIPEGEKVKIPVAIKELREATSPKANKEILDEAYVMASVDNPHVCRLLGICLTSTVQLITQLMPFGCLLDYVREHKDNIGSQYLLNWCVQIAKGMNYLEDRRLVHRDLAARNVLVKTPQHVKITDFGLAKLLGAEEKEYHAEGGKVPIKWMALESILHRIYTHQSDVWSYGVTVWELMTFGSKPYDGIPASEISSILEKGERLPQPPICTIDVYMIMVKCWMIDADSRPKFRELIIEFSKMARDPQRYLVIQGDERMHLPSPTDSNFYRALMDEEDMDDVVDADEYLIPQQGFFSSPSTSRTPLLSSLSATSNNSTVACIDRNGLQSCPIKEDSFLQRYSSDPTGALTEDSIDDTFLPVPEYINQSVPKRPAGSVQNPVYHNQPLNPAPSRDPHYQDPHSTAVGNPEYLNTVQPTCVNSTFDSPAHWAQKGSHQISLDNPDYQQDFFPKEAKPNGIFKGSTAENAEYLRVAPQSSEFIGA
Ba/F3_EGFR_del19/T790M/C797S cell, sequence (P00533 with tags, fused parts or gaps DEL746-750/T790M/C797S, form open): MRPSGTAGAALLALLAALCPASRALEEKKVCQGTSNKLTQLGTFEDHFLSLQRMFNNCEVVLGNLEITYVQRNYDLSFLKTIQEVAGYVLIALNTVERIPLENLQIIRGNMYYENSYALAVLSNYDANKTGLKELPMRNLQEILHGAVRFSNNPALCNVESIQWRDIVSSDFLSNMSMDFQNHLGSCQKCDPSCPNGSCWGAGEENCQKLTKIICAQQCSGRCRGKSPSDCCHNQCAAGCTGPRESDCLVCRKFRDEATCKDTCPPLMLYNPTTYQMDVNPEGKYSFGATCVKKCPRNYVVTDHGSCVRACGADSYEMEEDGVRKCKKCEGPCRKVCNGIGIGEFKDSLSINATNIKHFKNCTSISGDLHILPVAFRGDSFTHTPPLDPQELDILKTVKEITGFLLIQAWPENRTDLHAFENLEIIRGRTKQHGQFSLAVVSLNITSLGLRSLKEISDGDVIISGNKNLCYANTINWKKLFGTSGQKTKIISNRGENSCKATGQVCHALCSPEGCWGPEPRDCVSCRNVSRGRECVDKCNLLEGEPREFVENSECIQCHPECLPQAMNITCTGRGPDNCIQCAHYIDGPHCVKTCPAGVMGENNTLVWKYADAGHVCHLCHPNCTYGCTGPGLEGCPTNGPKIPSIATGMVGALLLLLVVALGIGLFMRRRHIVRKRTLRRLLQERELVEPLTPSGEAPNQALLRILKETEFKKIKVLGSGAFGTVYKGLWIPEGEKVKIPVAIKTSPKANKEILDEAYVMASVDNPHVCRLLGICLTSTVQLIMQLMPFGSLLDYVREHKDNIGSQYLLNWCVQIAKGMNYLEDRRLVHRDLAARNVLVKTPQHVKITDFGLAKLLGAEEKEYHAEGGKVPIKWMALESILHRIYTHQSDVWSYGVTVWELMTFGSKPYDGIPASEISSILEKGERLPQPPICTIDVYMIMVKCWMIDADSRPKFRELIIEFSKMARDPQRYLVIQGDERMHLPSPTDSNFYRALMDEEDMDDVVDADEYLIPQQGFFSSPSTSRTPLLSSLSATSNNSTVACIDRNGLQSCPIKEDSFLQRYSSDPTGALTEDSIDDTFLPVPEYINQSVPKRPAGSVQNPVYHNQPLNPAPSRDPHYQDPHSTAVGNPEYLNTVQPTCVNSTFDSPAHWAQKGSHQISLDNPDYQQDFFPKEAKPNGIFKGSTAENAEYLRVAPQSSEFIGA

With `COc1cc(N2CCC(N3CCN(C)CC3)CC2)c2cc1Nc1ncc(Br)c(n1)Nc1ccc(cc1N(C)S(C)(=O)=O)OCCCCC2` [Compound A29, N-(3^5-bromo-1^6-methoxy-1^4-(4-(4-methylpiperazin-1-yl)piperidin-1-yl)-6-oxa-2,4-diaza-3(2,4)-pyrimidina-1(1,3),5(1,4)-dibenzenacycloundecaphane-5^2-yl)-N-methylmethanesulfonamide], the “Tumor Volume” value in data set [1] (5 mg/kg orally once daily, Day 0) came out at 130 mm^3; in data set [1] (5 mg/kg orally once daily, Day 2) it was 212 mm^3; in data set [1] (5 mg/kg orally once daily, Day 4) it was 279 mm^3; in data set [1] (5 mg/kg orally once daily, Day 7) it was 462 mm^3; in data set [1] (5 mg/kg orally once daily, Day 9), 633 mm^3; in data set [1] (5 mg/kg orally once daily, Day 11), 819 mm^3. The “Tumor Volume” value in data set [1] (5 mg/kg orally once daily, Day 14) amounted to 1061 mm^3; in data set [1] (15 mg/kg orally once daily, Day 0) it was 130 mm^3; in data set [1] (15 mg/kg orally once daily, Day 2), 171 mm^3; in data set [1] (15 mg/kg orally once daily, Day 4), 226 mm^3; in data set [1] (15 mg/kg orally once daily, Day 7) it was 346 mm^3; in data set [1] (15 mg/kg orally once daily, Day 9), 469 mm^3. Also, the “Tumor Volume” value in data set [1] (15 mg/kg orally once daily, Day 11) came out at 597 mm^3; in data set [1] (15 mg/kg orally once daily, Day 14), 781 mm^3; in data set [1] (45 mg/kg orally once daily, Day 0), 130 mm^3; in data set [1] (45 mg/kg orally once daily, Day 2) it was 147 mm^3; in data set [1] (45 mg/kg orally once daily, Day 4) it was 172 mm^3; in data set [1] (45 mg/kg orally once daily, Day 7), 108 mm^3. Besides, the “Tumor Volume” value in data set [1] (45 mg/kg orally once daily, Day 9) was determined as 78 mm^3; in data set [1] (45 mg/kg orally once daily, Day 11) it was 25 mm^3; in data set [1] (45 mg/kg orally once daily, Day 14) it was 0 mm^3. Also, the “tumor growth inhibition rate TGITV (%)” value in data set [1] (5 mg/kg orally once daily) worked out at 68%; in data set [1] (15 mg/kg orally once daily), 76%; in data set [1] (45 mg/kg orally once daily), 100%. Moreover, the “tumor growth inhibition (in words)” value in data set [1] (all doses (5, 15, 45 mg/kg)) is listed as “significant tumor growth inhibition”. In addition, the 50% inhibitory concentration (IC50) (usually the concentration that gives 50% inhibition) came out at 0.5 nM in data set [2], 9.2 nM in data set [3] and 1320 nM in data set [5]. In addition, the GI50 in data set [4] turned out to be 16.4 nM. In data set [6] (from COc1cc(N2CCC(N3CCN(C)CC3)CC2)c(CCCCCBr)cc1Nc1ncc(Br)c(Nc2ccc(O)cc2N(C)S(C)(=O)=O)n1, K2CO3/KI, DMF, 10.2 mM), this compound yielded a ring closure, yield of all isomers of 55%. The compound further registered a ring closure, isolated yield in data set [7] (from COc1cc(N2CCC(N3CCN(C)CC3)CC2)c(CCCCCBr)cc1Nc1ncc(Br)c(Nc2ccc(O)cc2N(C)S(C)(=O)=O)n1, 18-membered ring, KI/K2CO3, DMF, 10.2 mM) of 55%.

In data set [2], `COc1cc(N2CCC(N3CCN(C)CC3)CC2)c2cc1Nc1ncc(Cl)c(n1)Nc1ccc(cc1N(C)S(C)(=O)=O)OCCCC(=O)N2` [Compound A39, N-(3^5-chloro-1^6-methoxy-1^4-(4-(4-methylpiperazin-1-yl)piperidin-1-yl)-10-oxo-6-oxa-2,4,11-triaza-3(2,4)-pyrimidina-1(1,3),5(1,4)-dibenzenacycloundecaphane-5^2-yl)-N-methylmethanesulfonamide] came in with an IC50 of 7.1 nM. The ring closure, yield of all isomers in data set [6] (from COc1cc(N2CCC(N3CCN(C)CC3)CC2)c(NC(=O)CCCBr)cc1Nc1ncc(Cl)c(Nc2ccc(O)cc2N(C)S(C)(=O)=O)n1, K2CO3/KI, DMF, 20.0 mM) was found to be 4.2%.

As for `COc1cc(N2CCC(N3CCN(C)CC3)CC2)c2cc1Nc1ncc(Cl)c(n1)Nc1ccc(cc1N(C)S(C)(=O)=O)OCCCCC2` [Compound A9, N-(3^5-chloro-1^6-methoxy-1^4-(4-(4-methylpiperazin-1-yl)piperidin-1-yl)-6-oxa-2,4-diaza-3(2,4)-pyrimidina-1(1,3),5(1,4)-dibenzenacycloundecaphane-5^2-yl)-N-methylmethanesulfonamide], the IC50 in data set [2] turned out to be 0.5 nM; in data set [3], 5.9 nM; in data set [5], 1390 nM. The GI50 in data set [4] came out at 34 nM.

In the case of `COc1cc(N2CCC(N(C)C)CC2)c2cc1Nc1ncc(Cl)c(n1)Nc1ccc(cc1N(C)S(C)(=O)=O)OCCCCC2` [Compound A24, N-(3^5-chloro-1^4-(4-(dimethylamino)piperidin-1-yl)-1^6-methoxy-6-oxa-2,4-diaza-3(2,4)-pyrimidina-1(1,3),5(1,4)-dibenzenacycloundecaphane-5^2-yl)-N-methylmethanesulfonamide], the 50% inhibitory concentration (IC50) in data set [2] worked out at 2.7 nM; in data set [3], 10.8 nM; in data set [5], 3330 nM. For the same compound, in data set [4], the GI50 came to 63 nM.

Consider `COc1cc(N2CCN(C)CC2)c2cc1Nc1ncc(Cl)c(n1)Nc1ccc(cc1S(C)(=O)=O)OCCC2` [Compound A1, 3^5-chloro-1^6-methoxy-1^4-(4-methylpiperazin-1-yl)-5^2-(methylsulfonyl)-6-oxa-2,4-diaza-3(2,4)-pyrimidina-1(1,3),5(1,4)-dibenzenacyclononaphane], for which the IC50 in data set [2] is 5580 nM. In data set [6] (from COc1cc(N2CCN(C)CC2)c(CCCO)cc1Nc1ncc(Cl)c(Nc2ccc(O)cc2S(C)(=O)=O)n1, DIAD/PPh3, THF, 18.8 mM), this compound gave a ring closure, yield of all isomers of 6%. This compound showed a ring closure, isolated yield in data set [7] (from COc1cc(N2CCN(C)CC2)c(CCCO)cc1Nc1ncc(Cl)c(Nc2ccc(O)cc2S(C)(=O)=O)n1, 16-membered ring, PPh3/DIAD, THF, 18.8 mM) of 6%.

Turning to `COc1cc(N2CCC(N3CCN(C)CC3)CC2)c2cc1Nc1ncc(Br)c(n1)Nc1ccc(cc1P(C)(C)=O)OCCCCC2` [Compound A33, (3^5-bromo-1^6-methoxy-1^4-(4-(4-methylpiperazin-1-yl)piperidin-1-yl)-6-oxa-2,4-diaza-3(2,4)-pyrimidina-1(1,3),5(1,4)-dibenzenacycloundecaphane-5^2-yl)dimethylphosphine oxide], the concentration for half-maximal inhibition (IC50) was found to be 1.8 nM in data set [2], 413 nM in data set [3] and 6490 nM in data set [5]. Besides, in data set [4], the GI50 is 75 nM.

On to `CCN(c1cc2ccc1Nc1nc(ncc1Br)Nc1cc(c(N3CCC(N4CCN(C)CC4)CC3)cc1OC)CCCCCO2)S(C)(=O)=O` [Compound A30, N-(3^5-bromo-1^6-methoxy-1^4-(4-(4-methylpiperazin-1-yl)piperidin-1-yl)-6-oxa-2,4-diaza-3(2,4)-pyrimidina-1(1,3),5(1,4)-dibenzenacycloundecaphane-5^2-yl)-N-ethylmethanesulfonamide], for which the IC50 in data set [2] was found to be 0.6 nM; in data set [3] it was 14.9 nM; in data set [5] it was 1690 nM. Further, the GI50 in data set [4] is 22.4 nM.
